Assay results taken from patent US7964624B1, “Inhibitors of serine proteases” (priority 2005, dated 2011).
Where two headings read alike, the source gives them in different places.

Columns and labels:
[1] = molecular target: T1, full-length hepatitis C viral protein NS3•4A (Hepatitis C virus genotype 1a, UniProt P27958); assay: biochemical; set-up: species or system HCV sub-type strain 1a; conditions: apparent Ki class
T1 construct: hexa-histidine (N); made in house; host or cells: Sf9 insect cells (baculovirus, pVL1392)

HCV NS3 protease domain = molecular target: T2, HCV NS3 protease domain (Hepatitis C virus genotype 1b, UniProt Q9WMX2); assay: biochemical; conditions: apparent Ki class
T2 construct: The first 181 amino acids of NS3 (residues 1027-1207 of the viral polyprotein); hexa-histidine (C); made in house; host or cells: E. coli BL21/DE3 pLysS

[2] = Enzyme Assay 2 (HCV NS3 Peptide Cleavage Assay) activity
[3] = Enzyme Assay 1 (HCV NS3 Protease Domain Peptide Cleavage Assay) activity

Compound	Ki [1, 2]	Ki (HCV NS3 protease domain; [3])	Ki ([1]; read-out: Enzyme Assay 2 (HCV NS3 Peptide Cleavage Assay) activity)	Ki (HCV NS3 protease domain; read-out: Enzyme Assay 1 (HCV NS3 Protease Domain Peptide Cleavage Assay) activity)
C=C[C@@H]1C[C@]1(NC(=O)[C@@H]1C[C@]2(CC(c3cccc(Cl)c3)=NO2)CN1C(=O)[C@@H](NC(=O)CC1CCCCC1)C(C)(C)C)C(=O)NS(=O)(=O)C1CC1 [Compound 162]	< 100 nM	100 to 500 nM	–	–
CCC[C@H](NC(=O)[C@@H]1C[C@]2(CC(c3cccc(Cl)c3)=NO2)CN1C(=O)[C@@H](NC(=O)CC1CCCCC1)C(C)(C)C)C(=O)C(=O)NCc1cccnc1 [Compound 408]	100 to 500 nM	> 500 nM	–	–
CCC[C@H](NC(=O)[C@@H]1C[C@]2(CC(c3cccc4cccnc34)=NO2)CN1C(=O)[C@@H](NC(=O)CC1CCCCC1)C(C)(C)C)C(=O)C(=O)NC1CC1 [Compound 42]	< 100 nM	100 to 500 nM	–	–
CC(C)(C)[C@H](NC(=O)CC1CCCCC1)C(=O)N1C[C@@]2(CC(c3cncc(Cl)c3)=NO2)C[C@H]1C(=O)NC(CC1CCC1)C(=O)C(=O)NC1CC1 (some centres unmarked) [Compound 132]	100 to 500 nM	100 to 500 nM	–	–
CCC[C@H](NC(=O)[C@@H]1C[C@]2(CC(c3cccc(Cl)c3)=NO2)CN1C(=O)[C@@H](NC(=O)CC1CCCCC1)C(C)(C)C)C(=O)C(=O)NC(C)Cc1c[nH]c2ccc(C(C)=O)cc12 (some centres unmarked) [Compound 138]	> 500 nM	> 500 nM	–	–
CCC[C@H](NC(=O)[C@@H]1C[C@]2(CC(c3cccc(Cl)c3)=NO2)CN1C(=O)[C@@H](NS(=O)(=O)c1ccc(Cl)cc1)C(C)CC)C(=O)C(=O)NC1CC1 (some centres unmarked) [Compound 416]	100 to 500 nM	> 500 nM	–	–
C=C[C@@H]1C[C@]1(NC(=O)[C@@H]1C[C@]2(CC(c3cccc(Cl)c3)=NO2)CN1C(=O)[C@@H](NC(=O)NC(C)(C)C)C(C)(C)C)C(=O)O [Compound 457]	> 500 nM	> 500 nM	–	–
CCC[C@H](NC(=O)[C@@H]1C[C@]2(CC(c3cccc(Cl)c3)=NO2)CN1C(=O)[C@@H](NC(=O)C1CCC(=O)N1)C(C)C)C(=O)C(=O)NC1CC1 (some centres unmarked) [Compound 218]	> 500 nM	> 500 nM	–	–
CCC[C@H](NC(=O)[C@@H]1C[C@]2(CC(c3cccc(Cl)c3)=NO2)CN1C(=O)[C@@H](NC(=O)CC1CCCCC1)C(C)(C)C)C(=O)C(=O)NCc1ccncc1 [Compound 461]	100 to 500 nM	> 500 nM	–	–
CCC[C@H](NC(=O)[C@@H]1C[C@]2(CC(c3cccc(Cl)c3)=NO2)CN1C(=O)[C@@H](NC(=O)CC1(O)CCCCC1)C(C)(C)C)C(=O)C(=O)NC1CC1 [Compound 233]	< 100 nM	100 to 500 nM	–	–
CCC[C@H](NC(=O)[C@@H]1C[C@]2(CC(c3cccc(Cl)c3)=NO2)CN1C(=O)[C@@H](NC(=O)CC12CCCCC1C2)C(C)(C)C)C(=O)C(=O)NC1CC1 (some centres unmarked) [Compound 19]	< 100 nM	100 to 500 nM	–	–
CCC[C@H](NC(=O)[C@@H]1C[C@]2(CC(c3cccc(Cl)c3)=NO2)CN1C(=O)[C@@H](NC(=O)CC1CCCCC1)C(C)OC)C(=O)C(=O)NC1CC1 (some centres unmarked) [Compound 124]	100 to 500 nM	> 500 nM	–	–
CCC[C@H](NC(=O)[C@@H]1C[C@]2(CC(c3cccc(Cl)c3)=NO2)CN1C(=O)[C@H](Cc1ccc(OC(C)C)cc1)NC(C)=O)C(=O)C(=O)NC1CC1 [Compound 332]	100 to 500 nM	> 500 nM	–	–
CCC[C@H](NC(=O)[C@@H]1C[C@]2(CC(c3cccc(Cl)c3)=NO2)CN1C(=O)[C@@H](NC(=O)CC1CCCCC1)C(C)(C)C)C(=O)C(=O)NCc1cc(-c2ccc(Cl)cc2)no1 [Compound 433]	> 500 nM	> 500 nM	–	–
CCC[C@H](NC(=O)[C@@H]1C[C@]2(CC(c3cccc(Cl)c3)=NO2)CN1C(=O)[C@@H](NC(=O)CC1CCC(C)CC1)C(C)(C)C)C(=O)C(=O)NC1CC1 (some centres unmarked) [Compound 361]	< 100 nM	100 to 500 nM	–	–
CCC[C@H](NC(=O)[C@@H]1C[C@]2(CC(c3cc(Cl)c(OC)cc3OC)=NO2)CN1C(=O)[C@@H](NC(=O)CC1CCOCC1)C(C)(C)C)C(=O)C(=O)NC1CC1 [Compound 326]	100 to 500 nM	100 to 500 nM	–	–
CCC[C@H](NC(=O)[C@@H]1C[C@]2(CC(c3ccc(C#N)cc3)=NO2)CN1C(=O)[C@@H](NC(=O)CC1CCOCC1)C(C)(C)C)C(=O)C(=O)NC1CC1 [Compound 177]	100 to 500 nM	> 500 nM	–	–
CC(C)(C)[C@H](NC(=O)CC1CC2CCC1C2)C(=O)N1C[C@@]2(CC(c3cccc(Cl)c3)=NO2)C[C@H]1C(=O)N[C@@H](CC1CC1)C(=O)C(N)=O (some centres unmarked) [Compound 13]	< 100 nM	< 100 nM	–	–
CCC[C@H](NC(=O)[C@@H]1C[C@]2(CC(c3ccc(OC)c(C)c3)=NO2)CN1C(=O)[C@@H](NC(=O)CC1CCCCC1)C(C)(C)C)C(=O)C(=O)NC1CC1 [Compound 500]	< 100 nM	100 to 500 nM	–	–

Compound	Ki [1, 2]	Ki (HCV NS3 protease domain; [3])	Ki ([1]; read-out: Enzyme Assay 2 (HCV NS3 Peptide Cleavage Assay) activity)	Ki (HCV NS3 protease domain; read-out: Enzyme Assay 1 (HCV NS3 Protease Domain Peptide Cleavage Assay) activity)
CCCC[C@H](NC(=O)CC1CCCCC1)C(=O)N1C[C@@]2(CC(c3cccc(Cl)c3)=NO2)C[C@H]1C(=O)N[C@@H](CCC)C(=O)C(=O)NC1CC1 [Compound 459]	100 to 500 nM	> 500 nM	–	–
CCC[C@H](NC(=O)[C@@H]1C[C@]2(CC(c3cccc(Cl)c3)=NO2)CN1C(=O)[C@@H](NC(=O)CC1CCCCC1)C(C)(C)C)C(=O)C(=O)N1CC(F)(F)C1 [Compound 521]	< 100 nM	100 to 500 nM	–	–
CCC[C@H](NC(=O)[C@@H]1C[C@]2(CC(c3cccc(Cl)c3)=NO2)CN1C(=O)CCn1c(=O)oc2ccccc21)C(=O)C(=O)NC1CC1 [Compound 376]	> 500 nM	> 500 nM	–	–
C=CCOC(=O)N[C@H](C(=O)N1C[C@@]2(CC(c3cccc(Cl)c3)=NO2)C[C@H]1C(=O)N[C@]1(C(=O)NS(=O)(=O)C2CC2)C[C@H]1C=C)C(C)(C)C [Compound 130]	< 100 nM	100 to 500 nM	–	–
CCC[C@H](NC(=O)[C@@H]1C[C@@]2(CC(c3cc(C)c(OC)c(Cl)c3)=NO2)CN1C(=O)[C@@H](NC(=O)CC1CCCCC1)C(C)(C)C)C(=O)C(=O)NC1CC1 [Compound 111]	100 to 500 nM	100 to 500 nM	–	–
CCC[C@H](NC(=O)[C@@H]1C[C@]2(CC(c3cccc(Cl)c3)=NO2)CN1C(=O)[C@@H](NC(=O)CC1CCC(C)(O)CC1)C(C)(C)C)C(=O)C(=O)NC1CC1 (some centres unmarked) [Compound 575]	–	–	< 100 nM	< 100 nM
CCC[C@H](NC(=O)[C@@H]1C[C@]2(CC(c3cccc(Cl)c3)=NO2)CN1C(=O)[C@@H](NC(=O)C1CCCCC1)C(C)(C)C)C(=O)C(=O)NC1CC1 [Compound 93]	< 100 nM	100 to 500 nM	–	–
CCC[C@H](NC(=O)[C@@H]1CC2(CC(c3cccc(Cl)c3)=NO2)CN1C(=O)[C@H](Cc1ccc(O)cc1)NC(C)=O)C(=O)C(=O)NC1CC1 (some centres unmarked) [Compound 412]	100 to 500 nM	100 to 500 nM	–	–
CCC[C@H](NC(=O)[C@@H]1C[C@]2(CC(c3cccc(Cl)c3)=NO2)CN1C(=O)[C@@H](NC(=O)CC1CCCCC1)C(C)(C)C)C(=O)C(=O)NCC1(c2ccc(OC)cc2)CCOCC1 [Compound 91]	> 500 nM	> 500 nM	–	–
CCC[C@H](NC(=O)[C@@H]1C[C@]2(CC(c3cccc(Cl)c3)=NO2)CN1C(=O)C1=CC(c2cc(OC)ccc2OC)NC(=O)N1)C(=O)C(=O)NC1CC1 (some centres unmarked) [Compound 586]	> 500 nM	> 500 nM	–	–
CCC[C@H](NC(=O)[C@@H]1C[C@]2(CC(c3cccc(Cl)c3)=NO2)CN1C(=O)[C@@H](NC(=O)CC1CCCCC1)C(C)(C)C)C(=O)C(=O)N[C@@H](C)C(O)(c1ccccc1)c1ccccc1 [Compound 507]	> 500 nM	> 500 nM	–	–
C=C[C@@H]1C[C@]1(NC(=O)[C@@H]1C[C@]2(CC(c3cccc(Cl)c3)=NO2)CN1C(=O)[C@@H](NC(=O)CC1CCOCC1)C(C)(C)C)C(=O)O [Compound 384]	> 500 nM	> 500 nM	–	–
CCC[C@H](NC(=O)[C@@H]1C[C@]2(CC(c3cccc(Cl)c3)=NO2)CN1C(=O)[C@@H](NC(=O)CC1CCOC(C)(C)C1)C(C)(C)C)C(=O)C(=O)NC1CC1 (some centres unmarked) [Compound 121]	< 100 nM	100 to 500 nM	–	–
C=C[C@@H]1C[C@]1(NC(=O)[C@@H]1C[C@]2(CC(c3cccc(Cl)c3)=NO2)CN1C(=O)[C@@H](NC(=O)OC1CCCC1)C(C)(C)C)C(=O)O [Compound 443]	> 500 nM	> 500 nM	–	–
CCC[C@H](NC(=O)[C@@H]1C[C@]2(CC(c3cccc(Cl)c3)=NO2)CN1C(=O)C(NC(=O)CC1C[C@@H](C)O[C@H](C)C1)C(C)(C)C)C(=O)C(=O)NC1CC1 (some centres unmarked) [Compound 153]	100 to 500 nM	100 to 500 nM	–	–
CCC[C@H](NC(=O)[C@@H]1C[C@]2(CC(c3cccc(Cl)c3)=NO2)CN1C(=O)[C@@H](NC(=O)CC1CCCCC1)C(C)(C)C)C(=O)C(=O)NC1Cc2ccccc2C1 [Compound 6]	> 500 nM	> 500 nM	–	–
CCC[C@H](NC(=O)[C@@H]1C[C@]2(CC(c3cccc(Cl)c3)=NO2)CN1C(=O)[C@@H](NC(=O)CC1CCCCC1)C(C)(C)C)C(=O)C(=O)NCCOc1ccccc1OC [Compound 488]	100 to 500 nM	> 500 nM	–	–
CN(C)C(=O)C(=O)[C@H](CC1CCC1)NC(=O)[C@@H]1C[C@]2(CC(c3cccc(Cl)c3)=NO2)CN1C(=O)[C@@H](NC(=O)CC1CCCCC1)C(C)(C)C [Compound 63]	> 500 nM	> 500 nM	–	–
